Columns and labels:
[1] = test system: human hepatocytes; assay: Cell viability in human hepatocytes; type: cell-based; conditions: 40 μM
Description: (§1) Cell culture and Peptide-PMO treatment. Immortalized myoblasts from healthy individual or DM1 patient with 2600 CTG repeats were cultivated in a growth medium consisting of a mix of M199:DMEM (1:4 ratio; Life technologies) supplemented with 20% FBS (Life technologies), 50 μg/ml gentamycin (Life technologies), 25 μg/ml fetuin, 0.5 ng/ml bFGF, 5 ng/ml EGF and 0.2 μg/ml dexamethasone (Sigma-Aldrich). Myogenic differentiation was induced by switching confluent cell cultures to DMEM medium supplemented with […] insulin (Sigma-Aldrich) for myoblasts. For treatment, WT or DM1 cells are differentiated for 4 days. Then, medium was changed with fresh differentiation medium with peptide-PMO conjugates at a 1, 2 ,5 10, 20 or 40 μM concentration. Cells were harvested for analysis 48 h after treatment. Cell viability was quantified in after 2 days of transfection of peptide-PMOs at 40 uM in human hepatocytes or at a 1, 2 ,5 10, 20 or 40 μM concentration in human myoblasts using a fluorescent-based assay (Promega).

[2] = test system: human myoblasts; assay: Cell viability in human myoblasts; type: cell-based; conditions: 1-40 μM, 48 hours
Description: as §1

[3] = ELISA biodistribution of PMO in tissues of treated HSA-LR mice; type: in vivo, mouse; conditions: for delivery of PMO to muscle: 2 weeks after IV administration
Description: Animal model and ASO injections. […] The intravenous injections in HSA-LR or C57BL/6 mice were performed by single or multiple administrations via the tail vein. […] Multiple injections were done at 2 weeks apart. Myotonia was evaluated and tissues were harvested 2 weeks after the last injection. For long-term experiments, tissues were harvested 3 months after the injection. For toxicology measurements, tissues were harvested after 1 week. Urine was tested by ELISAs (R&D cat# MKM100) with samples diluted to fit within standard curve. Values were normalised to urinary creatinine levels (Harwell) to account for urine protein concentration
ELISA based measurements of oligonucleotide concentrations in tissues. […] The probe was used to detect peptide-PMOs or naked PMO concentrations in eight different tissues (brain, kidney, liver, lung, heart, diaphragm, gastrocnemius and quadriceps) from treated HSA-LR mice.

[4] = test system: Mbnl-dependent transcripts (Clcn1 exon 7a, Serca exon22, Mbnl1 exon 5, Ldb3 exon11); assay: RT-PCR splicing correction in muscle of HSA-LR mice; type: in vivo, mouse; conditions: for splicing defects (clcn1 exon 7a, serca exon22, mbnl1 exon 5): 30 mg/kg IV, gastrocnemius and quadriceps of HSA-LR mice, two weeks after treatment; for splicing of Clcn1 exon 7a, Serca exon22, Mbnl1 exon 5 and Ldb3 exon11: 30 and 40 mg/kg, gastrocnemius of HSA-LR mice; for duration of splicing correction after treatment / splicing correction after single low doses: HSA-LR mice; for splicing correction after single low doses: single low doses (5 and 7.5 mg/kg)
Description: (§2) Animal model and ASO injections. Experiments were carried out in the University of Oxford or in the “Centre d'études fonctionnelles” (Faculté de Médecine Sorbonne University) according to UK and French legislation respectively (Ethics committee approval #1760-2015091512001083v6). The intravenous injections in HSA-LR or C57BL/6 mice were performed by single or multiple administrations via the tail vein. Doses of 5, 7.5, 12.5, 30 or 40 mg/kg of peptide-PMO-CAG7 and 12.5 or 200 mg/kg of PMO were diluted in 0.9% saline and given at a volume of 5-6 μL/g of body weight. Multiple injections were done at 2 weeks apart. Myotonia was evaluated and tissues were harvested 2 weeks after the last injection. For long-term experiments, tissues were harvested 3 months after the injection. For toxicology measurements, tissues were harvested after 1 week. Urine was tested by ELISAs (R&D cat# MKM100) with samples diluted to fit within standard curve. Values were normalised to urinary creatinine levels (Harwell) to account for urine protein concentration
RNA isolation, RT-PCR and qPCR analysis. For mice tissues: prior to RNA extraction, muscles were disrupted in TriReagent (Sigma-Aldrich) using Fastprep system and Lysing Matrix D tubes (MP biomedicals). For human cells: prior to RNA extraction, cells were lysed in a proteinase K buffer (500 mM NaCl, 10 mM Tris-HCl, pH 7.2, 1.5 mM MgCl2, 10 mM EDTA, 2% SDS and 0.5 mg/ml of proteinase K) for 45 min at 55° C. Total RNAs were isolated using TriReagent according to the manufacturer's protocol. One microgram of RNA was reverse transcribed using M-MLV first-strand synthesis system (Life Technologies) according to the manufacturer's instructions in a total of 20 μL. One microliter of cDNA preparation was subsequently used in a semi-quantitative PCR analysis according to standard protocol (ReddyMix, Thermo Scientific).
PCR amplification was carried out for 25-35 cycles within the linear range of amplification for each gene. PCR products were resolved on 1.5-2% agarose gels, ethidium bromide-stained and quantified with ImageJ software. The ratios of exon inclusion were quantified as a percentage of inclusion relative to total intensity of isoform signals. To quantify the mRNA expression, real-time PCR was performed according to the manufacturer's instructions. PCR cycles were a 15-min denaturation step followed by 50 cycles with a 94° C. denaturation for 15 s, 58° C. annealing for 20 s and 72° C. extension for 20 s.

[5] = test system: WT mice; assay: Recovery time after injection, WT mice; type: in vivo, mouse; conditions: 30 mg/kg, age 8-12 weeks
Description: as §2

[6] = test system: mice; assay: Mortality in mice; conditions: mouse, in vivo
[7] = 600 mg/kg (3 injections at 200 mg/kg) IV, 2 weeks post administration

**Q.** What does the source list for Ac-RXRRBRR-FQILY-RBRXR-B [Pip9b2-PMO]?
**A.** cell mortality in human hepatocytes [1]: > 50%; cell viability of human myoblasts [2]: induced cell mortality at lower doses

**Q.** Which “pM in Tissue: Diaphragm” value [3, 7] does the source give for “CAGCAGCAGCAGCAGCAGCAG (all phosphorodiamidate morpholino (PMO); Cell-penetrating peptide conjugated to the 3' end in the conjugates, further chemistry not fully specified) [Naked PMO]” here?
**A.** 30 pM

**Q.** What about the “pM in Tissue: Gastrocnemius” value [3, 7] of the same substance?
**A.** 18 pM

**Q.** And the “pM in Tissue: Heart” value [3, 7]?
**A.** 198 pM

**Q.** And the “pM in Tissue: Kidney” value [3, 7]?
**A.** 426748 pM

**Q.** And the “pM in Tissue: Liver” value [3, 7]?
**A.** 252 pM

**Q.** What about the “pM in Tissue: Lung” value [3, 7] of the same substance?
**A.** 113 pM

**Q.** And the “PMO levels in all tissues tested” value ([3]; 3 injections at 200 mg/kg, 2 weeks post administration)?
**A.** low to non-detectable levels

**Q.** And the “PMO detected in muscle tissues” value ([3]; two weeks after 3x200 mg/kg naked PMO IV)?
**A.** low pM

**Q.** What does the source list for Ac-RBRRBRFQILYBRBR-B [DPEP1.9]?
**A.** delivery of PMO to muscle [3]: able to deliver the PMO to muscle successfully; splicing defects (clcn1 exon 7a, serca exon22, mbnl1 exon 5) [4]: corrected to wild type levels; splicing of Clcn1 exon 7a, Serca exon22, Mbnl1 exon 5 and Ldb3 exon11 [4]: splicing normalization to wild type levels; duration of splicing correction after treatment [4]: at least 3 months; splicing correction after single low doses [4]: significant

**Q.** With Ac-RBRRBRRFQILYRBHBH-Ab [DPEP3.1a] as the substance, how does the “recovery time after injection, time AV ± SD” value [5] read?
**A.** 10 min

**Q.** What does the source list for Ac-RBRRBRFQILYRBHBH-B [DPEP3.8]?
**A.** splicing defects (clcn1 exon 7a, serca exon22, mbnl1 exon 5) [4]: corrected to wild type levels; splicing of Clcn1 exon 7a, Serca exon22, Mbnl1 exon 5 and Ldb3 exon11 [4]: splicing normalization to wild type levels; duration of splicing correction after treatment [4]: at least 3 months; splicing correction after single low doses [4]: significant

**Q.** For Ac-RBRRBRFQILYBRBR-E [DPEP1.9b], which “delivery of PMO to muscle” value [3] is on record?
**A.** able to deliver the PMO to muscle successfully

**Q.** What about the “recovery time after injection, time AV ± SD” value [5] of the same substance?
**A.** 15 min

**Q.** What does the source list for Ac-RXRRBRRXR-YQFLI-RXRBRXR-B [pip6a]?
**A.** cell mortality in human hepatocytes [1]: > 50%; cell viability of human myoblasts [2]: induced cell mortality at lower doses; dose that cannot be tested without causing high rates of mortality in mice [6]: > 20 mg/kg
